Test results from patent publication US20110045065A1, “SUBSTANCE HAVING ANTIOXIDANT, GEROPROTECTIVE AND ANTI-ISCHEMIC ACTIVITY AND METHOD FOR THE PREPARATION THEREOF” (priority 2005, published 2011).

Columns and labels:
[1] = system: acute myocardial ischemia (occlusion of the coronary artery of rats); experiment: Sizes of necrosis and ischemia zones in acute myocardial ischemia; assay type: in vivo, rat
Experimental: The experiments are carried out with non-pedigree male rats having a weight of 250-300 g, which have been anesthetized with sodium ethaminale (40 mg/kg intraperitoneally). A myocardial infarction was modeled for animals, transferred to controlled breathing, by ligation of a descending branch of the left-hand coronary artery to a level of the lower edge of an auricula atrii.
The sizes of necrosis zones and ischemia zones have been determined within 4 hours after occlusion of the coronary artery by a differential indicator method, the principle of which is based on separate quantitative determination of Evans' blue (indicator of an ischemia zone) and red phormazane (indicator of an necrosis zone).

[2] = system: external segments of photoreceptor cells; experiment: Ascorbate-induced peroxidation of external segments of photoreceptor cells; assay type: biochemical, pig
Excerpt: The external segments of photoreceptor cells are obtained from pig retinas according to standard procedure, using methods of differential centrifuging in a saccharose density gradient. […] Subsequently, the process was stopped by 15% trichloroacetic acid, and the concentration of TBK-active products has been determined. Samples being free of compound Ic were used as a control.
In these experiments a comparison of the speed of ascorbate-induced peroxidation of external segments of photoreceptor cells of pig eyes has been carried out, said comparison being determined with respect to the accumulation of TBK-active products in the presence of different compound I salts.

traumatic hemophthalmia = experiment: Experimental traumatic hemophthalmia: biochemical parameters in blood serum, tear liquid, anterior chamber liquid and eye tissue; assay type: in vivo, chinchilla rabbits
Experimental: Studies were carried out in 12 chinchilla rabbits having body weight 2.0-2.5 kg. A traumatic hemophthalmia was modeled by introduction of 0.5 to 0.7 ml of autoblood into a vitreous body through a puncture in a sclera on distance of 5 mm from a limbus, under a local anaesthesia. The basic group made with 6 rabbits (12 eyes), daily received a formulation prepared in accordance with the present invention parabulbarly (0.5 ml of 1% solution). A control group presented by 6 animals (12 eyes), daily received parabulbar emoxipin (2-ethyl-6-methyl-3-hydroxypiridin) in the same dosage. Treatment was carried out within 14 days after a trauma.
The materials used for biochemical examination were as follows: blood, liquid of the anterior chamber, tear liquid, tunics of eyeglobe (retina, a vitreous body). The blood was taken from the aural vein in an amount of 3 ml. Sampling of tear liquid was carried out by a microcapillary after instillation of distilled water into the conjunctival cavity. Liquid of the anterior chamber was obtained by paracentesis. The blood sampling as well as liquid of the anterior chamber and teat liquid were carried out on the 1st, 7th and 14th day of the experiment. On the 15th day of the studies, the animals were killed (pithed) by air embolism and both the eyes were enucleated. The eyes were prepared by tunic separation. Retina and vitreous body were obtained.

tissue of the eye = experiment: Local irritant action to tissue of the eye; assay type: in vivo, rabbit; settings: six rabbits, single instillation of 1% solution, within 1 min after dropping
Experimental: The experimental measurements are carried out on six rabbits. All animals have been subjected to single instillation of 1% solution of compound I into the right eye and 1% solution of emoxypine into the left eye. The front section of the eye is controlled by a focal illumination method with a 20 D lens within 1 min. after dropping.

[3] = rats, 16 mg/kg, within 4 hours after occlusion of the coronary artery
[4] = 1st day, anterior chamber liquid (ACL)
[5] = 7th day, anterior chamber liquid (ACL)
[6] = 14th day, anterior chamber liquid (ACL)

2,4,6-trimethyl-3-oxypyridine succinate [Compound Ic]
Ratio of necrosis zone to ischemia zone [1, 3]: 11 ± 3.3%
Ratio of necrosis zone to total mass of the myocardium [1, 3]: 4 ± 2.3%
Anti-ischemic activity in comparison ([1]; result in words): considerably higher anti-ischemic activity than the other 3-oxypyridines
Speed of accumulation of TBK-active products for 30 min of reacting ([2]; compound 43 mM): 0.05 nmol/mg
Inhibition ([2]; compound 43 mM, 30 min of reacting): 93.5%
Inhibition ([2]; response time 15 min, 17 mM compound, 0.5 mM ascorbic acid): 49.6%
Inhibition ([2]; response time 30 min, 17 mM compound, 0.5 mM ascorbic acid): 32.3%
AOA (traumatic hemophthalmia; [4]): 0.4 ± 0.01 relative unit
Concentration of TBA-active products (traumatic hemophthalmia; [4]): 0.97 ± 0.18 nmol/mL
Protein concentration (traumatic hemophthalmia; [4]): 3.1 ± 1.2 mg/mL
AOA (traumatic hemophthalmia; 1st day, blood serum (BS)): 1.7 ± 0.3 relative unit
Concentration of TBA-active products (traumatic hemophthalmia; 1st day, blood serum (BS)): 1.29 ± 0.13 nmol/mL
Protein concentration (traumatic hemophthalmia; 1st day, blood serum (BS)): 90.0 ± 6.0 mg/mL
AOA (traumatic hemophthalmia; 1st day, tear liquid (TL)): 0.23 ± 0.02 relative unit
Concentration of TBA-active products (traumatic hemophthalmia; 1st day, tear liquid (TL)): 0.14 ± 0.01 nmol/mL
Protein concentration (traumatic hemophthalmia; 1st day, tear liquid (TL)): 0.32 ± 0.2 mg/mL
AOA of basic group relative to control group, average of all measured substrata (traumatic hemophthalmia; 7th day): 1.5 times
AOA (traumatic hemophthalmia; 7th day, anterior chamber liquid): 0.8±0.07 /100 mcl
AOA (traumatic hemophthalmia; [5]): 0.8 ± 0.07 relative unit
Concentration of TBA-active products (traumatic hemophthalmia; [5]): 0.8 ± 0.5 nmol/mL
Protein concentration (traumatic hemophthalmia; [5]): 4.4 ± 1.2 mg/mL
AOA (traumatic hemophthalmia; 7th day, blood serum): 2.4±0.02 /100 mcl
AOA (traumatic hemophthalmia; 7th day, blood serum (BS)): 2.4 ± 0.02 relative unit
Concentration of TBA-active products (traumatic hemophthalmia; 7th day, blood serum (BS)): 1.17 ± 0.05 nmol/mL
Protein concentration (traumatic hemophthalmia; 7th day, blood serum (BS)): 82.4 ± 1.3 mg/mL
AOA (traumatic hemophthalmia; 7th day, tear liquid): 0.24±0.02 /200 mcl
AOA (traumatic hemophthalmia; 7th day, tear liquid (TL)): 0.24 ± 0.02 relative unit
Concentration of TBA-active products (traumatic hemophthalmia; 7th day, tear liquid (TL)): 0.13 ± 0.05 nmol/mL
Protein concentration (traumatic hemophthalmia; 7th day, tear liquid (TL)): 0.7 ± 0.2 mg/mL
AOA (traumatic hemophthalmia; 14th day, anterior chamber liquid): 0.5±0.05 /100 mcl
AOA (traumatic hemophthalmia; [6]): 0.5 ± 0.05 relative unit
Concentration of TBA-active products (traumatic hemophthalmia; [6]): 0.6 ± 0.2 nmol/mL
Protein concentration (traumatic hemophthalmia; [6]): 4.1 ± 1.1 mg/mL
AOA (traumatic hemophthalmia; 14th day, blood serum): 1.9±0.7 /100 mcl
AOA (traumatic hemophthalmia; 14th day, blood serum (BS)): 1.9 ± 0.7 relative unit
Concentration of TBA-active products (traumatic hemophthalmia; 14th day, blood serum (BS)): 0.9 ± 0.15 nmol/mL
Protein concentration (traumatic hemophthalmia; 14th day, blood serum (BS)): 47.0 ± 3.0 mg/mL
AOA (traumatic hemophthalmia; 14th day, tear liquid): 0.08±0.02 /200 mcl
AOA (traumatic hemophthalmia; 14th day, tear liquid (TL)): 0.08 ± 0.02 relative unit
Concentration of TBA-active products (traumatic hemophthalmia; 14th day, tear liquid (TL)): 0.04 ± 0.07 nmol/mL
Protein concentration (traumatic hemophthalmia; 14th day, tear liquid (TL)): 0.6 ± 0.2 mg/mL
AOA (traumatic hemophthalmia; Retina, listed under 14th day (eyes enucleated on the 15th day)): 0.4 ± 0.07 relative unit
AOA (traumatic hemophthalmia; Vitreous body, listed under 14th day (eyes enucleated on the 15th day)): 3.5 ± 0.9 relative unit
Antioxidant activity in vivo in comparison (traumatic hemophthalmia; conclusion in words): higher antioxidant activity than emoxipin
Augmentation of AOA in basic group in comparison with the control group (traumatic hemophthalmia; eye tunics, a retina and a vitreous body): 2 times
Local irritant reaction of conjunctiva, eyeglobe and cornea (tissue of the eye): do not show local irritating action on tissue of the eye
Local irritant reaction of conjunctiva, eyeglobe and cornea (tissue of the eye; listed as I): not detected
